Like-named read-outs stand apart in the source and are kept apart here. Peptide text beside a SMILES is read from it.
Assay: Plasma pharmacokinetics of EP-100 after IV infusion (phase I)
Format: in vivo, human
Conditions: for time at which C max was reached: majority of patients
Description: Blood samples (approximately 5 mL) were collected on Cycle 1 Day 1 at the following times: pre-dose, 10 and 20 min after start of EP-100 infusion, prior to completion of the infusion (−3 min) and 2, 15, 30, 60 (±2), 120 (±2) and 240 (±5) min after the infusion. Concentrations of EP-100 in EDTA-anticoagulated plasma were assayed by a validated HPLC-Mass Spectrometry method developed at Covance (Indianapolis, IN). EP-100 and the internal standard were extracted from human plasma by solid-phase extraction and analyzed using liquid chromatography with tandem mass spectrometric detection (MS/MS). The lower limit of quantitation for EP-100 in human plasma was 0.025 μg/mL, with linearity demonstrable to 5 μg/mL (upper limit of quantitation). Plasma PK analysis for EP-100 was performed using non-compartmental methods with Phoenix™ WinNonlin® version 6.1 or higher (Pharsight Corp., Mountain View, CA). Concentration–time profiles were constructed from the plasma sample data. Estimates of the area under the plasma concentration time curve (AUC) and slope of the terminal decay phase were used to calculate values of the following pharmacokinetic parameters: apparent terminal phase half-life (t 1/2), total body clearance (CL), apparent time of maximum concentration (T max) and apparent volume of distribution (V z). Means and standard deviations are presented where applicable. Phoenix™ WinNonlin® was used to identify the terminal linear phase of the concentration–time profile. The number of points chosen was determined based on the largest regression coefficient, R ^2, obtained. A minimum of three data points was used for determination of λ z, the elimination rate constant, determined by the slope of the terminal linear phase. The R ^2 had to be ≥0.8 to be included in the pharmacokinetic results. Summary statistics were prepared using Microsoft Excel 2007, and graphics were prepared with SigmaPlot™ version 11.2 (Systat Software Inc., Richmond, CA).

**Q.** What does the source list for CC(C)C[C@H](NC(=O)CNC(=O)[C@H](Cc1ccc(O)cc1)NC(=O)[C@H](CO)NC(=O)[C@H](Cc1c[nH]c2ccccc12)NC(=O)[C@H](Cc1c[nH]cn1)NC(=O)[C@@H]1CCC(=O)N1)C(=O)N[C@@H](CCCNC(=N)N)C(=O)N1CCC[C@H]1C(=O)NCC(=O)N[C@@H](CCCCN)C(=O)N[C@@H](Cc1ccccc1)C(=O)N[C@@H](C)C(=O)N[C@@H](CCCCN)C(=O)N[C@@H](Cc1ccccc1)C(=O)N[C@@H](C)C(=O)N[C@@H](CCCCN)C(=O)N[C@@H](CCCCN)C(=O)N[C@@H](Cc1ccccc1)C(=O)N[C@@H](C)C(=O)N[C@@H](CCCCN)C(=O)N[C@@H](Cc1ccccc1)C(=O)N[C@@H](C)C(=O)N[C@@H](CCCCN)C(=O)N[C@@H](CCCCN)C(=O)N[C@@H](Cc1ccccc1)C(=O)N[C@@H](C)C(=O)N[C@@H](CCCCN)C(=O)O [EP-100] (HELM PEPTIDE1{[Glp].H.W.S.Y.G.L.R.P.G.K.F.A.K.F.A.K.K.F.A.K.F.A.K.K.F.A.K}$$$$V2.0; C-terminus assumed)?
**A.** increase in C max with dose (0.6-40 mg/m^2, data highly variable): slightly greater than dose proportional; time at which C max was reached (EP-100 given over 30 min IV): 20 to 40 min; time at which C max was reached (EP-100 given over 60 min IV): 40 to 60 min; plasma concentrations versus concentrations active in vitro (doses of 5.2 mg/m^2 and above): reached the predicted “therapeutic” concentrations; volume of distribution, V z (doses of 7.8 to 17 mg/m2 IV): 2,400 to 2,666 mL; clearance (human, plasma, 0.6 mg/m2, dose 0.6 mg/m^2 IV): 299 mL/min; Vd (human, plasma, 0.6 mg/m2, dose 0.6 mg/m^2 IV, read-out: volume of distribution, V z): 4.35 L; clearance (human, plasma, 5.2 mg/m2, dose 5.2 mg/m^2 IV): 143 mL/min; Vd (human, plasma, 5.2 mg/m2, dose 5.2 mg/m^2 IV, read-out: volume of distribution, V z): 1.56 L; clearance (human, plasma, 7.8 mg/m2, dose 7.8 mg/m^2 IV): 223 mL/min; clearance (human, plasma, 11.7 mg/m2, dose 11.7 mg/m^2 IV): 222 mL/min; clearance (human, plasma, 17 mg/m2, dose 17 mg/m^2 IV): 110 mL/min; AUC(0-inf) (human, plasma, 40 mg/m2, highest dose level tested (40 mg/m^2), IV infusion, mean ± SD, read-out: mean AUC0–∞ (converted)): 5430 ng·h/mL; Cmax (human, plasma, 40 mg/m2, highest dose level tested (40 mg/m^2), IV infusion, mean ± SD, read-out: mean C max): 4760 ng/mL; half-life (human, plasma, 40 mg/m2, patients, IV infusion, highest dose tested (40 mg/m^2), read-out: terminal half-life): ~15 min; Vd (human, plasma, doses of 7.8 to 17 mg/m2 IV, read-out: volume of distribution, V z per body weight): ~0.06 L/kg
